Test results from patent US4529549A, “Spergualin-related compounds and process for the preparation thereof” (Zaidan Hojin Biseibutsu Kagaku Kenkyu Kai, priority 1982, dated 1985).
Values after ≈ are worked out from the molar mass of the structure shown. Where a name gives a salt, the structure may show the parent alone. Read-outs that look alike come from different tables or passages of the source.

How the values were obtained:
[1] = Stability of the compounds in aqueous solutions (HPLC residual content); type: physicochemical; conditions: for remaining at 12 h / remaining at 24 h / remaining at 48 h / remaining at 72 h / remaining at 120 h / remaining at 168 h: water; for Residual content (%) of the compound in an aqueous solution: 0.5 (w/w)% in water, 40°±1° C., initial content = 100%
Experimental: Each of the compounds of this invention was dissolved in water to a concentration of 0.5 (w/w)%. The aqueous solution was maintained at 40°±1° C., and sampled at certain time intervals. Each sample was subjected to high-performance liquid chromatographic analysis to measure the area of the peak of the compound at each sampling time, and to calculate the ratio of the area of the peak after the indicated period of time to that at the first sampling time. The results of the calculation were used to determine the contents (%) of the compound of this invention in the aqueous solution after the indicated periods of time, with the initial content of said compound set at 100%.

Bacillus subtilis PCI219 = assay: Growth-inhibiting action on Bacillus subtilis (agar plate MIC); type: cell-based; conditions: nutrient agar, 20 hours at 37° C.
Experimental: Each of the compounds of this invention was dissolved in nutrient agar media to final concentrations of 100, 50, 25, 12.5, 6.25, 3.13 and 1.56 μg/ml, to prepare agar plates for testing. Bacillus subtilis PCI219 was adjusted to a content of 1×10^6 viable cells/ml, in a culture broth, and a loopful of the broth was applied onto the agar plates. The plates were incubated for 20 hours at 37° C. under stationary conditions, and observed for the formation of colonies of Bacillus subtilis. The lowest of the concentrations at which no colonies were formed was taken to be minimum inhibitory concentration (MIC).

[2] = system: mouse leukemia L1210 cells; assay: In vitro proliferation-inhibiting action on mouse leukemia L1210 cells; type: cell-based; conditions: 48 hours at 37° C.
Experimental: Leukemia L1210 cells (1×10^5 /0.2 ml) were transplanted to female DBA/2 mice intraperitoneally. four days later, the ascitic fluid was collected and centrifuged to obtain proliferated L1210 cells. The L1210 cells collected were added to RPMI1640 medium containing bovine fetal serum and 2-mercaptoethanol, to obtain a suspension of L1210 cells having a final concentration of 5×10^4 cells/0.9 ml. Each of the compounds of this invention was dissolved in said culture medium to prepare solutions with final concentrations ranging from 0.062 to 100 μg/ml. 0.9 ml of the L1210 cell suspension and 0.1 ml of each test solution were mixed in petri dishes, and incubated for 48 hours at 37° C. in an incubator under an atmosphere of carbon dioxide gas. The number of L1210 cells was counted before and after the incubation, and that concentration of the compound which inhibited the proliferation of L1210 cells by 50% of the control's proliferation was determined (IC50).

[3] = Bacillus subtilis, PCI219, read-out: MIC

## N=C(N)NCCCCCCC(=O)N1CCC[C@H]1C(=O)NCCCCNCCCN [Compound 8, 10-[N--(7-guanidinoheptanoyl)-L-prolyl]-1,5,10-triazadecane trihydrochloride]
[1]
  remaining at 12 h: 100%
  remaining at 24 h: 100%
  remaining at 48 h: 99.6%
  remaining at 72 h: 99.8%
  remaining at 120 h: 99.8%
  remaining at 168 h: 100%
Bacillus subtilis PCI219; [3]
  MIC: > 100 µg/mL

## N=C(N)NCCCCCCC(=O)N[C@@H](Cc1cnc[nH]1)C(=O)NCCCCNCCCN [Compound 14, 10-[N--(7-guanidinoheptanoyl)-L-histidyl]-1,5,10-triazadecane trihydrochloride]
[1]
  remaining at 12 h: 99.1%
  remaining at 24 h: 99%
  remaining at 48 h: 99.6%
  remaining at 72 h: 99.5%
  remaining at 120 h: 99.9%
  remaining at 168 h: 99.6%
Bacillus subtilis PCI219; [3]
  MIC: 50 µg/mL
[2]
  IC50: 51 µg/mL

## N=C(N)NCCCCCCC(=O)N[C@@H](CC(=O)O)C(=O)NCCCCNCCCN [Compound 10, 10-[N--(7-guanidinoheptanoyl)-L-asparthyl]-1,5,10-triazadecane trihydrochloride]
[1]
  remaining at 12 h: 99.9%
  remaining at 24 h: 99.4%
  remaining at 48 h: 99.8%
  remaining at 72 h: 100%
  remaining at 120 h: 99.8%
  remaining at 168 h: 99.9%
Bacillus subtilis PCI219; [3]
  MIC: > 100 µg/mL
[2]
  IC50: 130 µg/mL

## N=C(N)NCCCCCCC(=O)N[C@@H](CCCNC(=N)N)C(=O)NCCCCNCCCN [Compound 12, 10-[N--(7-guanidinoheptanoyl)-L-arginyl]-1,5,10-triazadecane trihydrochloride]
[1]
  remaining at 12 h: 100%
  remaining at 24 h: 99.4%
  remaining at 48 h: 99.7%
  remaining at 72 h: 99.9%
  remaining at 120 h: 100%
  remaining at 168 h: 99.7%
Bacillus subtilis PCI219; [3]
  MIC: 12.5 µg/mL
[2]
  IC50: 1.5 µg/mL

## N=C(N)NCCCCCCCCC(=O)N[C@@H](CO)C(=O)NCCCCNCCCN [Compound 17, 10-[N--(9-guanidinononanoyl)-L-seryl]-1,5,10-triazadecane trihydrochloride]
[1]
  remaining at 12 h: 99.6%
  remaining at 24 h: 100%
  remaining at 48 h: 99.8%
  remaining at 72 h: 99.7%
  remaining at 120 h: 100%
  remaining at 168 h: 99.3%
Bacillus subtilis PCI219; [3]
  MIC: 6.25 µg/mL
[2]
  IC50: 11.3 µg/mL

## C[C@@H](O)[C@H](NC(=O)CCCCCCNC(=N)N)C(=O)NCCCCNCCCN [Compound 15, 10-[N--(7-guanidinoheptanoyl)-L-threonyl]-1,5,10-triazadecane trihydrochloride]
[1]
  remaining at 12 h: 99.2%
  remaining at 24 h: 99.8%
  remaining at 48 h: 99.1%
  remaining at 72 h: 100%
  remaining at 120 h: 99.6%
  remaining at 168 h: 100%
Bacillus subtilis PCI219; [3]
  MIC: 100 µg/mL
[2]
  IC50: 180 µg/mL

## Cl.Cl.Cl.N=C(N)NCCCCCCC(=O)N[C@@H](CCC(N)=O)C(=O)NCCCCNCCCN [Compound 11, 10-[N--(7-guanidinoheptanoyl)-L-glutaminyl]-1,5,10-triazadecane trihydrochloride]
[1]; 12 hr
  Residual content (%) of the compound in an aqueous solution: 99.5%
[1]; 24 hr
  Residual content (%) of the compound in an aqueous solution: 99.7%
[1]; 48 hr
  Residual content (%) of the compound in an aqueous solution: 101%
[1]; 72 hr
  Residual content (%) of the compound in an aqueous solution: 99.5%
[1]; 120 hr
  Residual content (%) of the compound in an aqueous solution: 100%
[1]; 168 hr
  Residual content (%) of the compound in an aqueous solution: 99.3%
Bacillus subtilis PCI219
  MIC: > 100 µg/mL

## N=C(N)NCCCC[C@H](O)CC(=O)N[C@@H](CO)C(=O)NCCCCNCCCN [Compound 3, 10-[N--(7-guanidino-3(S)--hydroxyheptanoyl)-L-seryl]-1,5,10-triazadecane trihydrochloride]
[1]
  remaining at 12 h: 99.3%
  remaining at 24 h: 99.5%
  remaining at 48 h: 100%
  remaining at 72 h: 99.6%
  remaining at 120 h: 99.7%
  remaining at 168 h: 100%
Bacillus subtilis PCI219; [3]
  MIC: 6.25 µg/mL
[2]
  IC50: 0.95 µg/mL

## N=C(N)NCCCCCCC(=O)NCCC(=O)NCCCCNCCCN [Compound 6, 10-[N--(7-guanidinoheptanoyl)-β-alanyl]-1,5,10-triazadecane trihydrochloride]
[1]
  remaining at 12 h: 100%
  remaining at 24 h: 100%
  remaining at 48 h: 99.6%
  remaining at 72 h: 99.6%
  remaining at 120 h: 99.9%
  remaining at 168 h: 100%
Bacillus subtilis PCI219; [3]
  MIC: 25 µg/mL
[2]
  IC50: 0.84 µg/mL

## CC(C)C[C@H](NC(=O)CCCCCCNC(=N)N)C(=O)NCCCCNCCCN [Compound 9, 10-[N--(7-guanidinoheptanoyl)-L-leucyl]-1,5,10-triazadecane trihydrochloride]
[1]
  remaining at 12 h: 99.7%
  remaining at 24 h: 99.9%
  remaining at 48 h: 99.8%
  remaining at 72 h: 100%
  remaining at 120 h: 100%
  remaining at 168 h: 99.9%
Bacillus subtilis PCI219; [3]
  MIC: > 100 µg/mL
[2]
  IC50: 70 µg/mL

## N=C(N)NCCCCCCC(=O)N[C@@H](Cc1ccccc1)C(=O)NCCCCNCCCN [Compound 13, 10-[N--(7-guanidinoheptanoyl)-L-phenylalanyl]-1,5,10-triazadecane trihydrochloride]
[1]
  remaining at 12 h: 99.8%
  remaining at 24 h: 99.5%
  remaining at 48 h: 99.9%
  remaining at 72 h: 100%
  remaining at 120 h: 101%
  remaining at 168 h: 100%
Bacillus subtilis PCI219; [3]
  MIC: > 100 µg/mL
[2]
  IC50: 2.8 µg/mL

## N=C(N)NCCCCCCC(=O)NC(CCO)C(=O)NCCCCNCCCN (racemic) [Compound 18]
[1]
  remaining at 12 h: 100%
  remaining at 24 h: 99.5%
  remaining at 48 h: 99.7%
  remaining at 72 h: 99.3%
  remaining at 120 h: 99.7%
  remaining at 168 h: 99.5%
Bacillus subtilis PCI219; [3]
  MIC: 100 µg/mL (≈ 241 µM)
[2]
  IC50: 150 µg/mL (≈ 361 µM)

## N=C(N)NCCCCCCC(=O)N[C@H](CO)C(=O)NCCCCNCCCN [Compound 4, 10-[N--(7-guanidinoheptanoyl)-D-seryl]-1,5,10-triazadecane trihydrochloride]
[1]
  remaining at 12 h: 101%
  remaining at 24 h: 100%
  remaining at 48 h: 100%
  remaining at 72 h: 99.7%
  remaining at 120 h: 99.6%
  remaining at 168 h: 100%
Bacillus subtilis PCI219; [3]
  MIC: 12.5 µg/mL
[2]
  IC50: 3.6 µg/mL

## CC(=O)O[C@@H](CCCCNC(=N)N)CC(=O)NCC(=O)NCCCCNCCCN [Compound 16, 10-[N--(7-guanidino-3(S)--acetoxyheptanoyl)-glycyl-1,5,10-triazadecanetrihydrochloride]
[1]
  remaining at 12 h: 99.9%
  remaining at 24 h: 99.5%
  remaining at 48 h: 99.6%
  remaining at 72 h: 99.2%
  remaining at 120 h: 99.6%
  remaining at 168 h: 99.6%
Bacillus subtilis PCI219; [3]
  MIC: > 100 µg/mL

## C[C@H](NC(=O)CCCCCCNC(=N)N)C(=O)NCCCCNCCCN [Compound 5, 10-[N--(7-guanidinoheptanoyl)-L-alanyl]-1,5,10-triazadecane trihydrochloride]
[1]
  remaining at 12 h: 99.8%
  remaining at 24 h: 99.8%
  remaining at 48 h: 100%
  remaining at 72 h: 99.6%
  remaining at 120 h: 99%
  remaining at 168 h: 99.9%
Bacillus subtilis PCI219; [3]
  MIC: 25 µg/mL
[2]
  IC50: 37 µg/mL

## N=C(N)NCCCCCCC(=O)NCCCC(=O)NCCCCNCCCN [Compound 7, 10-[N--(7-guanidinoheptanoyl)-γ-aminobutanoyl]-1,5,10-triazadecane trihydrochloride]
[1]
  remaining at 12 h: 99.9%
  remaining at 24 h: 100%
  remaining at 48 h: 99.8%
  remaining at 72 h: 99.9%
  remaining at 120 h: 100%
  remaining at 168 h: 99.8%
Bacillus subtilis PCI219; [3]
  MIC: 25 µg/mL
[2]
  IC50: 1.9 µg/mL
